# According to US8530433B2, “Use of icariside II in manufacture of products for preventing or treating male or female sexual dysfunction” (Bjo-Biomed Ltd, priority 2008, dated 2013):
# Legend:
# PAE-EGFR cells = experiment: NOS enzyme activity in EGFR expressing PAE-EGFR cells, NOS kit; assay type: cell-based, porcine; settings: PAE-EGFR cells; LNNA 10^-5 M
# Experimental: (§1) Porcine vascular endothelial cells (PAE) were provided by the Institute of Urology, Peking University. The determination of the effect of icariside II on NOS activity in the endothelial cell is conducted using NOS kit (Cayman Chemical company, Ann Arbor, Mich., USA). Vascular endothelial cells (PAE) were treated with different concentrations of icariside II (0, 10^−9, 10^−8, 10^−7, 10^−6, 10^−5 and 10^−4 M) (sildenafil as the control group). 180 μl lysate was added into each culture well. 20 μl supernatant was used for protein concentration assay with BCA protein kit. And, 100 μl supernatant was analyzed for NOS activity with NOS kit (Cayman Chemical company, Ann Arbor, Mich., USA). NOS activity (units/mg)=[(valueNos-measure−valueNOS-blank)÷(38.3×10^6)]×[(2.15+supernatant volume)÷(15×supernatant volume)]÷[protein concentration of each Petri dish]. 1) The EGFR gene was subcloned into pGFP plasmid to construct pGFP-EGFR expression vector. With Liposome transfection reagent (Qigen), pGFP-EGFR was transfected into PAE cells. After the selection with 1800 μg/ml of G418, a single cell clone was selected. Western blot confirms the stable expression of EGFR in the PAE-EGFR cells.
# [1] = test system: Primary human corpus cavernosum smooth muscle cells (CCSMCs); experiment: NOS activity in corpus cavernosum smooth muscle cells; assay type: cell-based; settings: LNNA 4×10^−4 M
# Experimental: Primary human corpus cavernosum smooth muscle cells ([…]) were provided by the Andrology Center of Peking University. The […] of the third passage were cultured in six well plates for two days. Then the cells were treated with icariside II or the sildenafil at a concentration of 0, 10^-9, 10^-8, 10^-7, 10^-6, 10^-5 M; or treated with icariside II (0, 10^-9, 10^-8, 10^-7, 10^-6, 10^-5 M) in the presence or absence of LNNA (4×10^-4 M). The control group was cultured with DMEM only. After 24 hours, the cells were washed three times and 180 μl lysis buffer was added into each well; 60 μl cell suspension was taken for protein concentration assay with BCA protein kit; 100 μl cell suspension was taken for NOS activity test. NOS activity (units/mg protein)=[(valueNOS-measure-valueNOS-blank)÷(38.3×10^6)]×[(2.15+supernatant volume)÷(15×S supernatant volume)]÷[protein concentration in each well].
# [2] = test system: Porcine vascular endothelial cells (PAE); experiment: NOS enzyme activity in vascular endothelial cells (PAE), NOS kit; assay type: cell-based; settings: LNNA 10^-5 M
# Experimental: as §1, with “dish].” for “dish]. 1) The EGFR gene was subcloned into pGFP plasmid to construct pGFP-EGFR expression vector. With Liposome transfection reagent (Qigen), pGFP-EGFR was transfected into PAE cells. After the selection with 1800 μg/ml of G418, a single cell clone was selected. Western blot confirms the stable expression of EGFR in the PAE-EGFR cells.”
structure (smiles),measurement,setting,value
"NC(=NCCC[C@H](N)C(=O)O)N[N+](=O)[O-] [LNNA, reference compound]",NOS baseline activity after treatment with NOS inhibitor,PAE-EGFR cells,3.27±0.319 u/mg
same,NOS activity after LNNA treatment,[1],0.3 units/mg protein
same,effect on the regulatory effect of icariside II on endothelial cell NOS activity,[2]; p<0.05,significantly inhibited
same,NOS baseline activity after treatment with NOS inhibitor,[2]; PAE cells,2.74±0.269 u/mg
